The record followed here is patent US20070093455A1, “10-substituted tetracyclines and methods of use thereof” (priority 2005, published 2007).

The IC20 is the concentration at which the effect reaches the 20% level. Read a low IC20 as an effect from little substance. The term IC50 denotes the point on the concentration scale where inhibition reaches its midpoint. A higher IC50 goes with weaker potency.

Converted amounts (≈) assume the structure as drawn.

The subject of one data set is S. pneumoniae 157E. Briefly: In vitro MIC assay, S. pneumoniae 157E. It counts as cell-based. Conditions: Streptococcus pneumoniae, broth supplemented with lysed horse blood, 35° C., 18-24 hours.
For a further data set, the system named is S. aureus RN450. Briefly: In vitro MIC assay, S. aureus RN450. Type of data set: cell-based. Conditions: Staphylococcus aureus, broth microdilution, 35° C., 18-24 hours. For orientation: Broth dilution looks for growth in wells or tubes with falling amounts of substance.
The subject of another data set is E. coli (ATCC 25922). As to the kind of experiment: In vitro MIC assay, E. coli (ATCC 25922). Particulars: Escherichia coli, ATCC25922; broth microdilution, 35° C., 18-24 hours. Type of data set: cell-based.
A further data set relates to E. coli translation. As to the kind of experiment: In vitro translation assay for inhibition of bacterial protein synthesis (E. coli S30 Extract System, luciferase). Conditions: 37° C., 1 hour, luciferase luminescence. It counts as biochemical. The method, then: As a further measure of antibacterial activity, an E. coli S30 Extract System was used to quantitate inhibition of E. coli translation by tetracycline derivatives. This system contained all required components for translation, including a nucleic acid template which, when translated, produces functional luciferase. The reactions were set up with E. coli S30 extract, amino acids, DNA template and selected tetracycline compounds at concentrations of 100, 50, 25, 10, 5, and 1 μg/ml. The reactions were incubated at 37° C. for 1 hour and analyzed by adding the reaction mix to Steady-Glo Luciferase Assay substrate (Promega, Madison Wis.). Luminescence was measured with the Wallac Victor5 plate reader and inhibition is calculated by comparing luciferase activity in experimental reactions versus controls.

The next data set deals with S. aureus RN4250. Briefly: In vitro MIC assay, S. aureus RN4250. It counts as cell-based. Particulars: Staphylococcus aureus, broth microdilution, 35° C., 18-24 hours.
A further data set has as its system E. coli MG 1655 DWAK. As to the kind of experiment: In vitro MIC assay, E. coli MG 1655 DWAK. It counts as cell-based. Conditions: Escherichia coli, MG1655DWAK; broth microdilution, 35° C., 18-24 hours. The method, then: The following assay was used to determine the efficacy of tetracycline compounds against common bacteria. Serial dilutions of compounds were prepared in microdilution plates using a Tecan robotic workstation. Mueller Hinton broth cultures of gram negative and gram positive strains were grown or adjusted to match the turbidity of a 0.5 McFarland standard. 1:200 dilutions were made in appropriate broth (cation supplemented Mueller Hinton broth or Haemophilus test medium) to allow a final inoculum of 1×10^5 cfu. Lysed horse blood was used to supplement broth for testing S. pneumoniae. The plates were incubated at 35° C. in ambient air for 18-24 hours, read spectrophotometrically, and checked manually for evidence of bacterial growth. Serial dilutions of compounds were also added to Brucella agar supplemented with laked sheep blood for P. acnes tests. A standard inoculum was transferred to the plate using a stainless steel replicator. After 48 hours of anaerobic incubation at 35° C. plates were examined. The MIC was defined as the lowest concentration of the tetracycline compound that inhibits growth. Table 3 gives the MIC (μg/mL) of selected substituted tetracycline compounds against a variety of gram positive and gram negative bacteria.

The next data set relates to P. aeruginosa K1033. Briefly: In vitro MIC assay, P. aeruginosa K1033. It counts as cell-based. Particulars: Pseudomonas aeruginosa, broth microdilution, 35° C., 18-24 hours.
Data set [1] relates to H. influenza (ATCC 49247). Briefly: In vitro MIC assay, H. influenza (ATCC 49247). Type of data set: cell-based. Particulars: read-out: MIC H. influenza (ATCC 49247).
The next data set deals with S. aureus MRSA5. Briefly: In vitro MIC assay, S. aureus MRSA5. Type of data set: cell-based. Particulars: Staphylococcus aureus, broth microdilution, 35° C., 18-24 hours.
For data set [2], the system named is Mouse 3T3 fibroblast cells. Briefly: Phototoxicity assay (neutral red). Conditions: 3T3 cells; for phototoxicity at 30 μM, incubated in the UV light: UV light 1.6-1.8 mW/cm^2, 30 μM. It counts as cell-based. As to the method: Mouse 3T3 fibroblast cells were harvested and plated at a concentration of 1×10^5 cells/mL. Drug dilutions were made in HBSS and added to the plates. Duplicate plates were then incubated in the dark (for controls), or under UV light (meter reading of 1.6-1.8 mW/cm^2) for 50 minutes. Cells were then washed with HBSS, fresh medium was added, and plates were then incubated overnight. The following day, neutral red was added as an indicator of cell viability and plates were incubated for an additional 3 hours. Cells were then washed with HBSS and a solution of 50% EtOH, 10% glacial acetic acid is added. After a 20 minute incubation period, plates absorbance at 535 nm were read using a Wallac Victor 5 spectrophotometer. The phototoxicity in light-treated and control cultures was then compared.

Another data set concerns COS-1 or CHO cell. As to the kind of experiment: Mammalian cell cytotoxicity assay (Resazurin; Alamar Blue). Conditions: COS-1 or CHO cells, 24 hour incubation. It counts as cell-based. As to the method: To predict the in vivo risks associated with the compounds of the invention, a soluble, non-toxic redox dye (“Resazurin”; Alamar Blue) was used to assess a compound's effect on cellular metabolism. COS-1 or CHO cell suspensions were prepared, seeded into 96-well black-walled microtiter plates, and incubated overnight at 37° C., in 5% CO2 and approximately 95% humidity. On the next day, serial dilutions of test drug were prepared and transferred to cell plates. Following a 24 hour incubation period, the media/drug was aspirated, and 50 μL of resazurin was added. After a 2 hour incubation, fluorescence measurements were taken (excitation […], emission 590 nm) and toxic effects in treated versus control cells were compared based on the degree of fluorescence in each well.
Background: Resazurin is reduced to fluorescent resorufin, in cell work by metabolically active cells.

With `NC(=O)C1=C(O)CC2CC3Cc4ccccc4C(=O)C3=C(O)[C@]2(O)C1=O` (some centres unmarked) [F], the MIC in the data set with S. pneumoniae 157E lay in the range of 22 to 43 µg/mL (≈ 61.9 to 121 µM); with S. aureus RN450, 0 to 21 µg/mL; in the data set on E. coli (ATCC 25922), 44 to 64 µg/mL (≈ 124 to 180 µM); in the data set with S. aureus RN4250 it was 0 to 21 µg/mL; in the data set on E. coli MG 1655 DWAK, 0 to 21 µg/mL; with P. aeruginosa K1033 it was 0 to 21 µg/mL. The MIC (in data set [1]; with S. aureus MRSA5) was 0 to 21 µg/mL in each case. This compound registered an IC20 in the data set on E. coli translation of less than 100 µM. The IC50 with E. coli translation is less than 100 µM. The “phototoxicity at 150 μM, incubated in the dark” value (from here on “phototoxicity at 150 μM”) in data set [2] is on record as “not to be appreciably phototoxic”.
`CN(C)c1cccc2c1CC1CC3[C@@H](N(C)C)C(O)=C(C(N)=O)C(=O)[C@@]3(O)C(O)=C1C2=O` (some centres unmarked) [C]: the MIC in the data set with S. pneumoniae 157E was 0 to 21 µg/mL; in the data set on S. aureus RN450, 0 to 21 µg/mL; against E. coli (ATCC 25922), 44 to 64 µg/mL (≈ 99.7 to 145 µM); in the data set with S. aureus RN4250 it was 0 to 21 µg/mL; in the data set on E. coli MG 1655 DWAK it was 0 to 21 µg/mL; in the data set with P. aeruginosa K1033 it was 0 to 21 µg/mL. Also, the values for the MIC (in data set [1]; against S. aureus MRSA5) were 22 to 43 µg/mL (≈ 49.8 to 97.4 µM) and 44 to 64 µg/mL (≈ 99.7 to 145 µM), respectively. Moreover, the 20% effect concentration (IC20) in the data set with E. coli translation is greater than 100 µM. Also, the IC50 in the data set on E. coli translation was greater than 100 µM. Besides, the “cytotoxicity at 75 μg/mL” value in the data set with COS-1 or CHO cell is “minimal cytotoxicity”. Besides, in [2], the “phototoxicity at 150 μM” value is “not to be appreciably phototoxic”.
For the compound `CN(C)c1cc(C(=O)O)cc2c1CC1CC3[C@@H](N(C)C)C(O)=C(C(N)=O)C(=O)[C@@]3(O)C(O)=C1C2=O` (some centres unmarked) [G], the MIC with S. pneumoniae 157E, with S. aureus RN450, in the data set with E. coli (ATCC 25922), in the data set on S. aureus RN4250, in the data set on E. coli MG 1655 DWAK and against P. aeruginosa K1033 was 44 to 64 µg/mL (≈ 90.6 to 132 µM) throughout. For the same compound, the MIC (in data set [1]; against S. aureus MRSA5) was 44 to 64 µg/mL (≈ 90.6 to 132 µM) throughout. This compound also showed an IC20 in the data set with E. coli translation of less than 100 µM. Also, the 50% inhibitory concentration (IC50) with E. coli translation was less than 100 µM. In the data set on COS-1 or CHO cell, the “cytotoxicity at 75 μg/mL” value is “minimal cytotoxicity”. The “phototoxicity at 30 μM, incubated in the UV light” value in [2] is recorded as “minimally phototoxic”. Moreover, the “phototoxicity at 150 μM” value in data set [2] is reported as “not to be appreciably phototoxic”.
Consider `CN(C)[C@@H]1C(O)=C(C(N)=O)C(=O)[C@@]2(O)C(O)=C3C(=O)c4c(cccc4OS(=O)(=O)C(F)(F)F)CC3CC12` (some centres unmarked) [O], for which the MIC against S. pneumoniae 157E lay within 44 to 64 µg/mL (≈ 80.5 to 117 µM); in the data set on S. aureus RN450, 22 to 43 µg/mL (≈ 40.3 to 78.7 µM); against E. coli (ATCC 25922) it was 44 to 64 µg/mL (≈ 80.5 to 117 µM); against S. aureus RN4250 it was 22 to 43 µg/mL (≈ 40.3 to 78.7 µM); against E. coli MG 1655 DWAK, 0 to 21 µg/mL; with P. aeruginosa K1033 it was 0 to 21 µg/mL. In addition, the MIC in [1] fell in the range of 44 to 64 µg/mL (≈ 80.5 to 117 µM); in the data set with S. aureus MRSA5, 22 to 43 µg/mL (≈ 40.3 to 78.7 µM). The compound further registered an IC20 in the data set on E. coli translation of less than 100 µM. The compound also registered an IC50 with E. coli translation of less than 100 µM.
In the case of `CC1CCN(c2cccc3c2C(=O)C2=C(O)[C@]4(O)C(=O)C(C(N)=O)=C(O)[C@@H](N(C)C)C4CC2C3)CC1` (some centres unmarked) [M], the MIC with S. pneumoniae 157E was 22 to 43 µg/mL (≈ 44.4 to 86.8 µM); against S. aureus RN450, 44 to 64 µg/mL (≈ 88.8 to 129 µM); against E. coli (ATCC 25922), 44 to 64 µg/mL (≈ 88.8 to 129 µM); against S. aureus RN4250, 44 to 64 µg/mL (≈ 88.8 to 129 µM); with E. coli MG 1655 DWAK, 0 to 21 µg/mL; against P. aeruginosa K1033, 0 to 21 µg/mL. The values for the MIC (in data set [1]; against S. aureus MRSA5) were 0 to 21 µg/mL and 44 to 64 µg/mL (≈ 88.8 to 129 µM), respectively. In addition, the 20% effect concentration (IC20) in the data set with E. coli translation was less than 100 µM. In the data set on E. coli translation, this compound came in with an IC50 of less than 100 µM. Further, the “cytotoxicity at 75 μg/mL” value in the data set on COS-1 or CHO cell is “minimal cytotoxicity”. For the same compound, the “phototoxicity at 30 μM, incubated in the UV light” value in [2] is recorded as “minimally phototoxic”. For the same compound, the “phototoxicity at 150 μM” value in [2] is given as “not to be appreciably phototoxic”.
